Assay results reported in ChEMBL document CHEMBL1201862, “PubChem BioAssay data set” (2004).
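Cultured in 96-well plates, cells were exposed to test compound for 48 hours across five concentrations. GI50 is the concentration that inhibits growth by half.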 Calls of active or inactive are those of the source. No stated cut-off is given here; in the data, active = GI50 up to about 1.1 µM and inactive = higher.

Tests used:
Test in all cases: inhibition of tumour cell growth, NCI panel, 48 h
786-0 = test system: 786-0
A498 = test system: A498
A549 = test system: A549
ACHN = test system: ACHN
BT-549 = test system: BT-549
CAKI-1 = test system: CAKI-1
CCRF-CEM = test system: CCRF-CEM
COLO 205 = test system: COLO 205
DU-145 = test system: DU-145
EKVX = test system: EKVX
HCT-116 = test system: HCT-116
HCT-15 = test system: HCT-15
HL-60 = test system: HL-60
HOP-62 = test system: HOP-62
HOP-92 = test system: HOP-92
HT-29 = test system: HT-29
IGROV-1 = test system: IGROV-1
K562 = test system: K562
KM12 = test system: KM12
LOX IMVI = test system: LOX IMVI
M14 = test system: M14
MCF7 = test system: MCF7
MDA-MB-231 = test system: MDA-MB-231
MDA-MB-435 = test system: MDA-MB-435
MDA-N = test system: MDA-N
MOLT-4 = test system: MOLT-4
NCI-H226 = test system: NCI-H226
NCI-H23 = test system: NCI-H23
NCI-H460 = test system: NCI-H460
NCI-H522 = test system: NCI-H522
NCI/ADR-RES = test system: NCI/ADR-RES
OVCAR-3 = test system: OVCAR-3
OVCAR-4 = test system: OVCAR-4
OVCAR-5 = test system: OVCAR-5
OVCAR-8 = test system: OVCAR-8
PC-3 = test system: PC-3
RPMI-8226 = test system: RPMI-8226
RXF 393 = test system: RXF 393
SF-268 = test system: SF-268
SF-295 = test system: SF-295
SF-539 = test system: SF-539
SK-MEL-28 = test system: SK-MEL-28
SK-MEL-5 = test system: SK-MEL-5
SK-OV-3 = test system: SK-OV-3
SN12C = test system: SN12C
SNB-19 = test system: SNB-19
SNB-75 = test system: SNB-75
SR = test system: SR
SW-620 = test system: SW-620
T47D = test system: T47D
TK-10 = test system: TK-10
U-251 = test system: U-251
UACC-257 = test system: UACC-257
UACC-62 = test system: UACC-62
UO-31 = test system: UO-31
HCC 2998 = test system: HCC 2998
Malme-3M = test system: Malme-3M
SK-MEL-2 = test system: SK-MEL-2
Hs-578T = test system: Hs-578T

O=C(O)CC1OCC=C2CN3CCC45c6ccccc6NC4C1C2CC35 (stereo not drawn)
GI50 (786-0): > 100 µM (inactive)
GI50 (A498): > 100 µM (inactive)
GI50 (A549): > 100 µM (inactive)
GI50 (ACHN): > 100 µM (inactive)
GI50 (BT-549): > 100 µM (inactive)
GI50 (CAKI-1): > 100 µM (inactive)
GI50 (CCRF-CEM): > 100 µM (inactive)
GI50 (COLO 205): > 100 µM (inactive)
GI50 (DU-145): > 100 µM (inactive)
GI50 (EKVX): > 100 µM (inactive)
GI50 (HCT-116): > 100 µM (inactive)
GI50 (HCT-15): > 100 µM
GI50 (HL-60): > 100 µM (inactive)
GI50 (HOP-62): > 100 µM (inactive)
GI50 (HOP-92): > 100 µM (inactive)
GI50 (HT-29): > 100 µM (inactive)
GI50 (IGROV-1): > 100 µM (inactive)
GI50 (K562): > 100 µM (inactive)
GI50 (KM12): > 100 µM (inactive)
GI50 (LOX IMVI): > 100 µM (inactive)
GI50 (M14): > 100 µM (inactive)
GI50 (MCF7): > 100 µM (inactive)
GI50 (MDA-MB-231): > 100 µM (inactive)
GI50 (MDA-MB-435): > 100 µM (inactive)
GI50 (MDA-N): > 100 µM (inactive)
GI50 (MOLT-4): > 100 µM (inactive)
GI50 (NCI-H226): > 100 µM (inactive)
GI50 (NCI-H23): > 100 µM (inactive)
GI50 (NCI-H460): > 100 µM (inactive)
GI50 (NCI-H522): > 100 µM (inactive)
GI50 (NCI/ADR-RES): > 100 µM (inactive)
GI50 (OVCAR-3): > 100 µM (inactive)
GI50 (OVCAR-4): > 100 µM (inactive)
GI50 (OVCAR-5): > 100 µM (inactive)
GI50 (OVCAR-8): > 100 µM (inactive)
GI50 (PC-3): > 100 µM (inactive)
GI50 (RPMI-8226): > 100 µM (inactive)
GI50 (RXF 393): > 100 µM (inactive)
GI50 (SF-268): > 100 µM (inactive)
GI50 (SF-295): > 100 µM (inactive)
GI50 (SF-539): > 100 µM (inactive)
GI50 (SK-MEL-28): > 100 µM (inactive)
GI50 (SK-MEL-5): > 100 µM (inactive)
GI50 (SK-OV-3): > 100 µM (inactive)
GI50 (SN12C): > 100 µM (inactive)
GI50 (SNB-19): > 100 µM (inactive)
GI50 (SNB-75): 77.1 µM (inactive)
GI50 (SR): > 100 µM (inactive)
GI50 (SW-620): > 100 µM (inactive)
GI50 (T47D): > 100 µM (inactive)
GI50 (TK-10): > 100 µM (inactive)
GI50 (U-251): > 100 µM (inactive)
GI50 (UACC-257): > 100 µM (inactive)
GI50 (UACC-62): > 100 µM (inactive)
GI50 (UO-31): > 100 µM (inactive)

COc1cc2c[n+](C)c3c4cc(OC)c(OCc5ccccc5)cc4c(OCc4ccccc4)cc3c2cc1OC
GI50 (786-0): 13.2 µM (inactive)
GI50 (A498): 48 µM (inactive)
GI50 (A549): 30 µM (inactive)
GI50 (ACHN): > 75.2 µM (inactive)
GI50 (BT-549): 2.21 µM (inactive)
GI50 (CAKI-1): 35.2 µM (inactive)
GI50 (CCRF-CEM): 4.68 µM (inactive)
GI50 (COLO 205): 0.429 µM (active)
GI50 (DU-145): 11.5 µM (inactive)
GI50 (EKVX): 38.5 µM (inactive)
GI50 (HCC 2998): 11.7 µM (inactive)
GI50 (HCT-116): 3.76 µM (inactive)
GI50 (HCT-15): 97.9 µM
GI50 (HOP-62): 13.8 µM (inactive)
GI50 (HOP-92): 1.84 µM (inactive)
GI50 (HT-29): 3.61 µM (inactive)
GI50 (IGROV-1): 1.69 µM (inactive)
GI50 (K562): 1.28 µM (inactive)
GI50 (KM12): 10.5 µM (inactive)
GI50 (LOX IMVI): 5.3 µM (inactive)
GI50 (M14): 9.66 µM (inactive)
GI50 (MCF7): 3.93 µM (inactive)
GI50 (MDA-MB-231): 5.02 µM (inactive)
GI50 (MDA-MB-435): 1.74 µM (inactive)
GI50 (MDA-N): 1.23 µM (inactive)
GI50 (MOLT-4): 2.54 µM (inactive)
GI50 (Malme-3M): 2.22 µM (inactive)
GI50 (NCI-H226): 2.26 µM (inactive)
GI50 (NCI-H23): 5.58 µM (inactive)
GI50 (NCI-H460): 33 µM (inactive)
GI50 (NCI-H522): 0.416 µM (active)
GI50 (NCI/ADR-RES): 84.7 µM (inactive)
GI50 (OVCAR-3): 2.51 µM (inactive)
GI50 (OVCAR-4): 4.11 µM (inactive)
GI50 (OVCAR-5): > 29.6 µM (inactive)
GI50 (OVCAR-8): 6.85 µM (inactive)
GI50 (PC-3): 2.5 µM (inactive)
GI50 (RPMI-8226): 25.7 µM (inactive)
GI50 (RXF 393): 12.1 µM (inactive)
GI50 (SF-268): 3.44 µM (inactive)
GI50 (SF-295): 25.7 µM (inactive)
GI50 (SF-539): 2.57 µM (inactive)
GI50 (SK-MEL-28): 5.48 µM (inactive)
GI50 (SK-MEL-2): 2.1 µM (inactive)
GI50 (SK-MEL-5): 2.08 µM (inactive)
GI50 (SK-OV-3): 5.68 µM (inactive)
GI50 (SN12C): 4.03 µM (inactive)
GI50 (SNB-19): 0.923 µM (active)
GI50 (SNB-75): 4.46 µM (inactive)
GI50 (SR): 1.4 µM (inactive)
GI50 (SW-620): 3.18 µM (inactive)
GI50 (T47D): 5.22 µM (inactive)
GI50 (TK-10): 23.3 µM (inactive)
GI50 (U-251): 0.449 µM (active)
GI50 (UACC-257): 2.9 µM (inactive)
GI50 (UACC-62): 2.6 µM (inactive)
GI50 (UO-31): > 100 µM (inactive)

COc1cc(/C=C/C(=O)c2ccc(O)c(OC)c2)ccc1O
GI50 (COLO 205): 20.1 µM (inactive)
GI50 (EKVX): 12.3 µM (inactive)
GI50 (HOP-92): 27.2 µM (inactive)
GI50 (Hs-578T): 17.5 µM (inactive)
GI50 (MDA-MB-231): 29.1 µM (inactive)
GI50 (Malme-3M): 22.3 µM (inactive)
GI50 (NCI-H226): 24.5 µM (inactive)
GI50 (NCI-H522): 14.5 µM (inactive)
GI50 (OVCAR-3): 18.7 µM (inactive)
GI50 (OVCAR-4): 24.3 µM (inactive)
GI50 (OVCAR-5): 24.8 µM (inactive)
GI50 (SF-295): 20.6 µM (inactive)
GI50 (SK-MEL-28): 17.6 µM (inactive)
GI50 (SK-MEL-2): 20.3 µM (inactive)
GI50 (SK-OV-3): 13.4 µM (inactive)
GI50 (SNB-75): 24.8 µM (inactive)
GI50 (T47D): 22.9 µM (inactive)
GI50 (TK-10): 46.8 µM (inactive)
GI50 (UACC-257): 22.5 µM (inactive)

Cc1c(O)c(OC2OC(CO)C(O)C(O)C2O)cc2c1CC[C@@H]1C2(C)C(=O)C[C@]2(C)[C@@H]([C@@](C)(O)C(O)CCC(C)(C)O)[C@H](O)C[C@@]12C (stereo partly drawn)
GI50 (786-0): > 100 µM (inactive)
GI50 (A498): > 100 µM (inactive)
GI50 (A549): > 100 µM (inactive)
GI50 (ACHN): > 100 µM (inactive)
GI50 (BT-549): > 100 µM (inactive)
GI50 (CAKI-1): > 100 µM (inactive)
GI50 (CCRF-CEM): > 100 µM (inactive)
GI50 (COLO 205): > 100 µM (inactive)
GI50 (DU-145): > 100 µM (inactive)
GI50 (EKVX): > 100 µM (inactive)
GI50 (HCC 2998): > 100 µM (inactive)
GI50 (HCT-116): > 100 µM (inactive)
GI50 (HCT-15): > 100 µM
GI50 (HL-60): > 100 µM (inactive)
GI50 (HOP-62): > 100 µM (inactive)
GI50 (HOP-92): > 100 µM (inactive)
GI50 (HT-29): > 100 µM (inactive)
GI50 (IGROV-1): > 100 µM (inactive)
GI50 (K562): > 100 µM (inactive)
GI50 (KM12): > 100 µM (inactive)
GI50 (LOX IMVI): > 100 µM (inactive)
GI50 (M14): > 100 µM (inactive)
GI50 (MCF7): > 100 µM (inactive)
GI50 (MDA-MB-231): > 100 µM (inactive)
GI50 (MDA-MB-435): > 100 µM (inactive)
GI50 (MDA-N): > 100 µM (inactive)
GI50 (MOLT-4): > 100 µM (inactive)
GI50 (Malme-3M): > 100 µM (inactive)
GI50 (NCI-H226): > 100 µM (inactive)
GI50 (NCI-H23): > 100 µM (inactive)
GI50 (NCI-H460): > 100 µM (inactive)
GI50 (NCI-H522): > 100 µM (inactive)
GI50 (NCI/ADR-RES): > 100 µM (inactive)
GI50 (OVCAR-3): > 100 µM (inactive)
GI50 (OVCAR-4): > 100 µM (inactive)
GI50 (OVCAR-5): > 100 µM (inactive)
GI50 (OVCAR-8): > 100 µM (inactive)
GI50 (PC-3): > 100 µM (inactive)
GI50 (RXF 393): > 100 µM (inactive)
GI50 (SF-268): > 100 µM (inactive)
GI50 (SF-295): > 100 µM (inactive)
GI50 (SF-539): > 100 µM (inactive)
GI50 (SK-MEL-28): > 100 µM (inactive)
GI50 (SK-MEL-2): > 100 µM (inactive)
GI50 (SK-MEL-5): > 100 µM (inactive)
GI50 (SK-OV-3): > 100 µM (inactive)
GI50 (SN12C): > 100 µM (inactive)
GI50 (SNB-19): > 100 µM (inactive)
GI50 (SNB-75): > 100 µM (inactive)
GI50 (SR): > 100 µM (inactive)
GI50 (SW-620): > 100 µM (inactive)
GI50 (T47D): > 100 µM (inactive)
GI50 (TK-10): > 100 µM (inactive)
GI50 (U-251): > 100 µM (inactive)
GI50 (UACC-257): > 100 µM (inactive)
GI50 (UACC-62): > 100 µM (inactive)
GI50 (UO-31): > 100 µM (inactive)
